Reference: ChEMBL document CHEMBL1201862, “PubChem BioAssay data set” (2004)
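Each compound was tested at five concentrations against cells in 96-well plates for 48 hours. Abbreviation: GI50, concentration required for 50% inhibition of growth.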 The source made the active and inactive calls. No stated cut-off is given here; in the data, active = GI50 up to about 1.1 µM and inactive = higher.

Experiments:
Experiment in all cases: NCI-60 cell line screen, 48 h
OVCAR-8 = system: OVCAR-8
M14 = system: M14
UO-31 = system: UO-31
SF-268 = system: SF-268
HOP-62 = system: HOP-62
COLO 205 = system: COLO 205
RXF 393 = system: RXF 393
Malme-3M = system: Malme-3M
SN12C = system: SN12C
NCI-H226 = system: NCI-H226
SF-539 = system: SF-539
HCC 2998 = system: HCC 2998
HL-60 = system: HL-60
MCF7 = system: MCF7

Measured: GI50

O=[N+]([O-])c1ccc2nc(/C(=N/Nc3ccccc3)C(O)c3ccc(Cl)cc3Cl)c(O)nc2c1 (configuration not stated)
inactive: OVCAR-8 > 100 µM | M14 > 100 µM | UO-31 78.9 µM | SF-268 > 100 µM | HOP-62 > 100 µM | COLO 205 38.9 µM | RXF 393 > 100 µM | Malme-3M > 100 µM | SN12C > 100 µM | NCI-H226 > 100 µM | SF-539 > 100 µM | HCC 2998 > 100 µM | HL-60 21 µM

CN(C)CCC(/C=C/c1ccccc1)=N\Nc1ccc(Cl)cc1
inactive: OVCAR-8 2.98 µM | M14 3.18 µM | UO-31 1.71 µM | SF-268 2.07 µM | HOP-62 1.8 µM | COLO 205 4.31 µM | RXF 393 6.05 µM | Malme-3M 12.7 µM | SN12C 2.29 µM | SF-539 2.25 µM | HCC 2998 1.69 µM | HL-60 2.18 µM

Cc1ccc(NC(=O)CC2C(=O)Nc3ccccc3[S+]2[O-])c(C)c1 (configuration not stated)
inactive: OVCAR-8 16.9 µM | M14 6.78 µM | UO-31 19.3 µM | SF-268 24.5 µM | HOP-62 16.4 µM | COLO 205 7.52 µM | RXF 393 8.61 µM | Malme-3M 18.4 µM | SN12C 30.5 µM | NCI-H226 16.2 µM | SF-539 12.9 µM | HCC 2998 20 µM | HL-60 2.86 µM

COC(=O)C(CCCN1C(=O)c2ccccc2C1=O)C(=O)OC
inactive: OVCAR-8 > 100 µM | M14 > 100 µM | UO-31 > 100 µM | SF-268 > 100 µM | HOP-62 > 100 µM | COLO 205 > 100 µM | RXF 393 > 100 µM | Malme-3M > 100 µM | SN12C > 100 µM | NCI-H226 > 100 µM | SF-539 > 100 µM | HCC 2998 > 100 µM | HL-60 > 100 µM

O=C1C(c2ccc([N+](=O)[O-])cc2)=[N+]([O-])c2ccccc21
inactive: OVCAR-8 4.31 µM | M14 28.7 µM | UO-31 29.4 µM | SF-268 40.8 µM | HOP-62 32.4 µM | COLO 205 11.1 µM | RXF 393 23.3 µM | Malme-3M 36.6 µM | SN12C 24.5 µM | NCI-H226 34.9 µM | SF-539 37.9 µM | HL-60 25.8 µM

COc1ccccc1-n1c(N)c2c(C)c(-c3ccccc3)[nH]c2nc1=S
inactive: OVCAR-8 > 100 µM | M14 > 100 µM | UO-31 > 100 µM | HOP-62 > 100 µM | COLO 205 > 100 µM | Malme-3M 91.8 µM | SN12C > 100 µM | NCI-H226 63 µM | SF-539 33.7 µM | HCC 2998 > 100 µM | HL-60 > 100 µM

N#Cc1c2c(c(N=[N+]=[N-])n3c1nc1ccccc13)CCCC2
inactive: OVCAR-8 1.69 µM | M14 1.93 µM | UO-31 1.94 µM | SF-268 3.49 µM | HOP-62 16.2 µM | COLO 205 3.27 µM | RXF 393 1.77 µM | Malme-3M 2.4 µM | SN12C 2.14 µM | NCI-H226 1.73 µM | SF-539 1.93 µM | HCC 2998 12.6 µM | HL-60 2.32 µM

Cc1ccc(S(=O)(=O)OCC23CCC(CC2)C2CC23)cc1 (configuration not stated)
inactive: OVCAR-8 59.3 µM | M14 92 µM | UO-31 34.4 µM | SF-268 37.5 µM | HOP-62 48.3 µM | COLO 205 61.8 µM | Malme-3M 48.8 µM | SN12C 45.4 µM | NCI-H226 61.2 µM | HCC 2998 > 100 µM | HL-60 17.4 µM

CCCCCCCCCCCCCC(=O)OC1C(CO)OC(=O)C1O (configuration not stated)
inactive: OVCAR-8 > 100 µM | M14 > 100 µM | UO-31 51.8 µM | SF-268 > 100 µM | HOP-62 > 100 µM | COLO 205 > 100 µM | RXF 393 > 100 µM | Malme-3M > 100 µM | SN12C > 100 µM | SF-539 > 100 µM | HCC 2998 > 100 µM | HL-60 34.3 µM

COc1cc2c(cc1O)CN1CCC23C=C[C@@H](O)CC13 (some centres not stated)
inactive: OVCAR-8 38.1 µM | M14 41 µM | UO-31 > 100 µM | SF-268 59.6 µM | HOP-62 > 100 µM | COLO 205 27.7 µM | RXF 393 38.2 µM | Malme-3M > 100 µM | SN12C 46.2 µM | NCI-H226 76.4 µM | HCC 2998 56.9 µM | HL-60 15.2 µM

Cc1ccccc1NC(=O)c1cc2cc(/N=N/c3ccccc3C(=O)O)ccc2oc1=O
inactive: OVCAR-8 29.6 µM | M14 16.7 µM | UO-31 20.6 µM | HOP-62 21.4 µM | COLO 205 12.9 µM | RXF 393 17.4 µM | Malme-3M 6.75 µM | SN12C 18.6 µM | NCI-H226 20.8 µM | SF-539 18 µM | HL-60 19.5 µM

COc1cccc(NC(=O)/C(Cc2nc3ccccc3nc2C)=N/NC(=O)C[n+]2ccccc2)c1
inactive: OVCAR-8 > 100 µM | M14 > 100 µM | UO-31 > 100 µM | SF-268 > 100 µM | HOP-62 > 100 µM | COLO 205 20.8 µM | Malme-3M > 100 µM | SN12C > 100 µM | NCI-H226 > 100 µM | SF-539 > 100 µM | HCC 2998 > 100 µM | HL-60 > 100 µM

CCN(CC)C(=O)CC12CCCCC1=Nc1ccccc12 (configuration not stated)
inactive: OVCAR-8 > 100 µM | M14 > 100 µM | HOP-62 > 100 µM | COLO 205 > 100 µM | Malme-3M > 100 µM | SF-539 > 100 µM | HCC 2998 > 100 µM | HL-60 > 100 µM

CCc1cccc(C)c1NC(=O)CC1C(=O)Nc2ccccc2[S+]1[O-] (configuration not stated)
inactive: OVCAR-8 46 µM | M14 31.2 µM | UO-31 98.2 µM | SF-268 42.2 µM | HOP-62 71.4 µM | COLO 205 39.2 µM | Malme-3M 28.5 µM | SN12C 50 µM | NCI-H226 > 100 µM | SF-539 29.2 µM | HCC 2998 56.4 µM | HL-60 28.4 µM

COc1ccc(OC2(c3cc(OC)ccc3OC)OC(=O)c3ccccc32)cc1 (configuration not stated)
inactive: OVCAR-8 > 100 µM | M14 > 100 µM | UO-31 > 100 µM | SF-268 > 100 µM | HOP-62 > 100 µM | COLO 205 > 100 µM | RXF 393 > 100 µM | Malme-3M > 100 µM | SN12C > 100 µM | NCI-H226 > 100 µM | SF-539 > 100 µM | HCC 2998 > 100 µM | HL-60 > 100 µM

COc1cc2c(c(OC)c1OC)C(=O)NCCC2
inactive: OVCAR-8 > 100 µM | M14 > 100 µM | UO-31 > 100 µM | SF-268 > 100 µM | HOP-62 > 100 µM | COLO 205 > 100 µM | MCF7 > 100 µM | RXF 393 > 100 µM | Malme-3M > 100 µM | SN12C > 100 µM | NCI-H226 > 100 µM | SF-539 > 100 µM | HCC 2998 > 92.9 µM | HL-60 > 63.1 µM

CCCCOC(=O)NC(=O)c1cn(C2CCCCC2)c(=O)[nH]c1=O
inactive: OVCAR-8 42.9 µM | M14 50.7 µM | UO-31 21.3 µM | SF-268 30.8 µM | HOP-62 25.3 µM | COLO 205 > 100 µM | Malme-3M 31 µM | SN12C > 100 µM | NCI-H226 20.3 µM | SF-539 18.5 µM | HCC 2998 > 100 µM | HL-60 > 100 µM

CC1=C(C(=O)CC(=O)C(=O)NC2C3CC4CC(C3)CC2C4)Sc2ccccc2N1 (configuration not stated)
inactive: OVCAR-8 > 100 µM | M14 > 100 µM | UO-31 > 60.3 µM | SF-268 > 94.8 µM | HOP-62 > 100 µM | COLO 205 > 31.6 µM | RXF 393 > 100 µM | Malme-3M > 100 µM | SN12C > 100 µM | SF-539 > 100 µM | HCC 2998 > 100 µM | HL-60 > 100 µM

COC(=O)[C@H]1[C@H]2C[C@@H]3c4[nH]c5cc(OC)ccc5c4CCN3C[C@H]2C[C@@H](OC(=O)c2cc(OC)c(OC)c(OC)c2)[C@@H]1OC [RESERPINE]
inactive: OVCAR-8 19.6 µM | M14 15.4 µM | UO-31 15.1 µM | SF-268 28.1 µM | HOP-62 12.6 µM | COLO 205 15.7 µM | Malme-3M 17.5 µM | NCI-H226 19.6 µM | SF-539 11.6 µM | HCC 2998 27.8 µM | HL-60 14.2 µM

C/C(CC(=O)Nc1ccc(Cl)c(Cl)c1)=N/NC(=O)C[N+](C)(C)C
inactive: OVCAR-8 > 100 µM | M14 > 100 µM | UO-31 > 100 µM | SF-268 > 100 µM | HOP-62 > 100 µM | COLO 205 35.2 µM | RXF 393 > 100 µM | Malme-3M > 100 µM | SN12C > 100 µM | NCI-H226 > 100 µM | SF-539 > 100 µM | HCC 2998 > 100 µM | HL-60 44 µM

CNc1nnnn1C1OC(CO)C(O)C1O (configuration not stated)
inactive: OVCAR-8 > 100 µM | M14 > 100 µM | UO-31 > 100 µM | SF-268 > 100 µM | HOP-62 > 100 µM | COLO 205 > 100 µM | RXF 393 43.9 µM | Malme-3M > 100 µM | SN12C > 100 µM | NCI-H226 > 100 µM | SF-539 > 100 µM | HCC 2998 > 100 µM
